Experimental data taken from PubChem BioAssay (NCI).
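Exposure lasted 48 hours, with cells grown in 96-well plates and compounds tested at five concentrations. TGI marks complete inhibition of growth.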

Key:
Assay in all cases: inhibition of tumour cell growth, NCI panel, 48 h
SF-268 CNS = system: SF-268 CNS
LOX IMVI melanoma = system: LOX IMVI melanoma
M19-MEL melanoma = system: M19-MEL melanoma
SF-295 CNS = system: SF-295 CNS
KM20L2 colon = system: KM20L2 colon
EKVX NSCLC = system: EKVX NSCLC
SNB-75 CNS = system: SNB-75 CNS
SN12C renal = system: SN12C renal
NCI-H522 lung = system: NCI-H522 lung
SR leukemia = system: SR leukemia
MDA-N = system: MDA-N

Row | Structure (SMILES) | TGI (SF-268 CNS) | TGI (LOX IMVI melanoma) | TGI (M19-MEL melanoma) | TGI (SF-295 CNS) | TGI (KM20L2 colon) | TGI (EKVX NSCLC) | TGI (SNB-75 CNS) | TGI (SN12C renal) | TGI (NCI-H522 lung) | TGI (SR leukemia) | TGI (MDA-N)
1 | C/C(CN1C(=O)c2ccccc2C1=O)=N\NS(=O)(=O)c1ccc(Br)cc1 | > 100 µM | > 100 µM | > 100 µM | > 100 µM | > 100 µM | > 100 µM | > 100 µM | > 100 µM | > 100 µM | – | –
2 | CCOC(=O)CSc1ccnc(=O)[nH]1 | > 100 µM | > 100 µM | > 100 µM | > 100 µM | > 100 µM | > 100 µM | > 100 µM | > 100 µM | > 100 µM | – | –
3 | NC(=S)NNC(=O)/C(=C/c1ccc(/C=C(\NC(=O)c2ccccc2)C(=O)NNC(N)=S)cc1)NC(=O)c1ccccc1 | > 100 µM | > 100 µM | > 100 µM | > 100 µM | > 100 µM | > 100 µM | 85 µM | > 100 µM | > 71.1 µM | > 63 µM | –
4 | O=C(NO)c1ccc([N+](=O)[O-])cc1 | > 100 µM | > 100 µM | > 100 µM | > 100 µM | > 100 µM | > 100 µM | 93.8 µM | > 100 µM | 97.2 µM | – | –
5 | CCCCCCn1c(SCC)c2ccccc2c1-c1nc(F)nc(F)n1 | > 100 µM | > 100 µM | > 100 µM | > 100 µM | > 100 µM | > 100 µM | > 100 µM | > 100 µM | > 100 µM | > 100 µM | –
6 | COc1ccc(/C=C(\Cl)c2ccc(OC)c(OC)c2)cc1OC | > 100 µM | > 100 µM | > 100 µM | > 100 µM | > 100 µM | > 100 µM | > 100 µM | > 100 µM | > 100 µM | > 100 µM | > 100 µM
7 | c1ccc(Nc2nnc(CSc3nc(-c4ccccc4)c(-c4ccccc4)[nH]3)s2)cc1 | 46.2 µM | 31.8 µM | 28.6 µM | 36 µM | 48.5 µM | 51.5 µM | 85.6 µM | 35 µM | 34.9 µM | 51.1 µM | –
8 | O=S(=O)([O-])[O-].[Fe+2].c1ccc(/C(=N\Nc2ccccn2)c2ccccn2)cc1 | 19.3 µM | 11.8 µM | 4.25 µM | 8.77 µM | 12.4 µM | 4.72 µM | 14.7 µM | 9.69 µM | 3.55 µM | – | –
9 | CC(C)=CCCC1(C)C=Cc2c(c(C)cc3c2[nH]c2cc(O)ccc23)O1 (stereo unspecified) | > 25 µM | > 25 µM | > 25 µM | – | > 25 µM | – | – | > 25 µM | > 25 µM | > 25 µM | –
10 | CC1CC2OC(=O)C3CC(O)CC(=C23)[C@@]12C[C@@H](c1ccoc1)OC2=O (stereo partly specified) | > 100 µM | > 100 µM | > 100 µM | > 100 µM | > 100 µM | > 100 µM | > 100 µM | > 100 µM | > 100 µM | > 100 µM | –
11 | COc1cc(/C=C\c2ccccn2)cc(OC)c1OC | > 100 µM | > 100 µM | > 100 µM | > 100 µM | > 100 µM | > 100 µM | > 100 µM | > 100 µM | > 100 µM | – | –
12 | CC#COP(=O)(OCC)OCC | > 100 µM | > 100 µM | > 100 µM | > 100 µM | > 100 µM | > 100 µM | – | > 100 µM | > 100 µM | > 100 µM | –
13 | CCOC(C[C@H](O)[C@H]1COC(=S)S1)OCC | > 100 µM | > 100 µM | > 100 µM | > 100 µM | > 100 µM | > 100 µM | – | > 100 µM | > 100 µM | > 100 µM | –
14 | O=C1C/C(=C/c2ccc(/C=C3/CC(=O)N(c4cccc(Br)c4)C3=O)cc2)C(=O)N1c1cccc(Br)c1 | > 100 µM | > 100 µM | > 100 µM | > 100 µM | > 100 µM | > 100 µM | 53.1 µM | > 100 µM | > 100 µM | > 100 µM | –
